Two compounds from US20170314056A1, “METHOD OF USING NEAR INFRARED FLUORESCENT DYES FOR IMAGING AND TARGETING CANCERS” (priority 2010, published 2017) can be followed below.

For one data set, the system named is normal human cells. Description: Uptake of NIR dyes by cultured normal human cells. The class given is cell-based. Conditions: HS-27A/BMC, NPE, NPF, HUVEC-CS, HEK293; 20 μM dye, 30 min.
Another data set deals with human tumor xenografts. The data set is described as follows: NIR imaging of human tumor xenografts in live mice. Conditions: for tumor imaging of subcutaneous xenografts: Kodak multimodal-imaging system; for dye uptake and signal in human xenograft implants at various sites: subcutaneous, orthotopic or intraosseous tumors, i.p. or i.v. dye; for duration of dye uptake and retention in tumors after dye administration: tumors in live mice. From the text:
[…] After variable time of the dye injection, the mice were anesthetized and imaged by using the Kodak animal in vivo imaging system, which can obtain both the NIR signal and the X-ray picture and these images were merged. […] IR-783 uptake into metastatic human prostate tumors was studied in ARCaP model.
Uptake and accumulation of cyanine dyes in tumors in live mice Human cancer cells were implanted (1×10^6) either subcutaneously, orthotopically, or intraosseously into 4 to 6 week old athymic nude mice (National Cancer Institute, Frederick, Md.) according to our previously published procedures (26, 27). All animal studies were conducted under the Emory University Animal Care and Use Committee guidelines. […] Whole body optical imaging was taken at 24 h using a Kodak Imaging Station 4000 MM (New Haven, Conn.) equipped with fluorescent filter sets (excitation/emission, 800/850 nm). The field of view (FOV) was 120 mm in diameter. The frequency rate for NIR excitation light was 2 mW/cm^2. The camera settings included maximal gain, 2×2 binning, 1024×1024 pixel resolution, and an exposure time of 5 sec. In some instances, live mice were also imaged by an Olympus OV100 Whole Mouse Imaging System (excitation 762 nm; emission 800 nm) (Olympus Corp., Tokyo, Japan), containing a MT-20 light source (Olympus Biosystems, Planegg, Germany) and DP70 CCD camera (Olympus). Prior to imaging, mice were anesthetized with ketamine (75 mg/kg). During imaging, mice were maintained in an anesthetized state.
Human renal cancer cells (ACHN and SN12C) were implanted (1×10^6) subcutaneously and intraosseously into 4 to 6 week old athymic nude mice, respectively. And, we also implanted Caki-1 cells into the renal capsule of athymic nude mice to establish subrenal capsule xenografts of renal cancer as previously described.^70 When tumor sizes reached between 1-6 mm in diameter, as assessed by X-ray or by palpation, mice were […] Whole body optical imaging was taken at 24 h using a Kodak Imaging Station Imaging System 4000 MM (New Haven, Conn.) equipped with fluorescent filter sets (excitation/emission, 800/850 nm). The field of view (FOV) was 120 mm in diameter. The frequency rate for NIR excitation light was 2 mW/cm^2. The camera settings included maximal gain, 2×2 binning, 1024×1024 pixel resolution, and an exposure time of 5 sec. After whole body NIR imaging, the dissected organs and tumors were subjected to ex vivo imaging. Prior to imaging, mice were anesthetized with ketamine (75 mg/kg). During imaging, mice were maintained in an anesthetized state.
A general note: A xenograft is tissue or cells of one species grown in another, often human tumour cells in immunodeficient mice.

A short description of data set [1]: Dye distribution and clearance in normal mouse tissues. The format is in vivo. From the text:
One mouse was sacrificed at 96 hrs after IR-780 injection through tail vein, and isolated tissues and organs excised from mice were cut into frozen slides and were imaged under confocal microscope.
To assess tissue distribution of these dyes, athymic mice without tumor implantation were sacrificed at 0, 6 and 80 hrs (N=3 each) after i.v. injection of IR-783 dye at a dose of 10 nmol/20 g. Dissected organs were subjected to NIR imaging by a Kodak Imaging Station 4000 MM. In another study the mice bearing orthotopic ARCaPM tumors were subjected to NIR imaging at 0.5, 24, 48, 72 and 96 hrs after IR-783 i.v. administration at a dose of 10 nmol/20 g. In some cases, we also assessed the biodistribution of NIR dye by a spectral method in tissues harvested from athymic mice bearing subcutaneous ARCaPM tumors (N=6). Tumors and normal host organs were homogenized in PBS, centrifuged at 15,000×g for 15 minutes to recover the supernatant fraction after the mice were injected i.p. with IR-783 at a dose of 10 nmol/20 g. The presence of the organic dyes (parental IR-783 and its metabolites) in tissues was estimated spectrophotometrically at an emission wavelength of 820 nm by a PTI Near Infrared Fluorometer QuantaMaster™ 50 (PTI, Birmingham, N.J.) equipped with a 75-watt xenon arc lamp under 500 to 1700 nm InGaAs detector using known concentrations of IR-783 as the standard (28). In other cases, tumor tissues harvested from mice were stored in formalin from 1 week to 3 months, and fluorescence images were obtained and compared.

The mark [2] stands for this setting: mice bearing subcutaneous ACHN tumors.

Entries after “also recorded” stand apart in the source; their conditions may differ.

Procedure for normal human cells: Cells (1×10^4/well) were seeded on vitronectin-coated four-well chamber slides (Nalgen Nunc, Naperville, Ill.) and incubated with T-medium containing 5% FBS for 24 h. After the cells had attached to the chamber slides, the cells were washed with PBS (Phosphate Buffered Saline) and exposed to the cyanine dye at a concentration of 20 μM in T-medium. The slides were incubated at 37° C. for 30 min, washed twice with PBS to remove excess dyes, and cells were fixed with 10% formaldehyde at 4° C. The slides were then washed twice with PBS and covered with glass coverslips with an aqueous mounting medium (Sigma-Aldrich, St. Louis, Mo.). Images were recorded by confocal laser microscopy (Zeiss LSM 510 META, Germany) using a 633 nm excitation laser and 670-810 nm long pass filter, or a fluorescence microscope (Olympus 1×71; Olympus, Melville, N.Y.) equipped with a 75 W Xenon lamp and an Indo-Cyanine Green filter cube (excitation 750-800 nm; emission 820-860 nm) (Chroma, Rockingham, Vt.).
Cells (1×10^4/well) were seeded on vitronectin-coated four-well chamber slides (Nalgen Nunc, Naperville, Ill.) and incubated with T-medium containing 5% FBS for 24 h. After the cells had attached to the chamber slides, the cells were washed with PBS (Phosphate Buffered Saline) and exposed to the cyanine dye at a concentration of 20 μM in medium. The slides were incubated at 37° C. for 30 min, washed twice with PBS to remove excess dyes, and fixed with 10% formaldehyde at 4° C. The slides were then washed twice with PBS and covered with glass coverslips with aqueous mounting medium (Sigma-Aldrich, St. Louis, Mo.). Images were recorded by confocal laser microscopy (Zeiss LSM 510 META, Germany) equipped with 633 nm excitation laser and 670-810 nm long pass filter.

Consider “2-[2-[2-Chloro-3-[2-[1,3-dihydro-3,3-dimethyl-1-(4-sulfobutyl)-2H-indol-2-ylidene]-ethylidene]-1-cyclohexen-1-yl]-ethenyl]-3,3-dimethyl-1-(4-sulfobutyl)-3H-indolium [IR-783]”, for which the “uptake of dye by normal human cells in culture” value in the data set with normal human cells is recorded as “unable to be taken up by normal cells; also recorded: not to accumulate; also recorded: not taken up; also recorded: low uptake; also recorded: very low uptake”. Further, the “tumor imaging of subcutaneous xenografts” value in the data set on human tumor xenografts (5 nmol dye through tail vein) was “clear tumor images can be detected”. Further, in the data set on human tumor xenografts (metastatic prostate tumors (ARCaP orthotopic) in mice), the “time after dye at which optimal images of tumors and metastases are obtained” value was 24 to 48 h. In addition, in the data set on human tumor xenografts (setting [2]), the “signal in tumor specimens, ex vivo analysis” value is listed as “higher signals in tumor specimens” and the “signals in other normal organs, ex vivo analysis” value is listed as “very low signals”. Moreover, the “dye uptake by orthotopic ARCaPM tumors” value with human tumor xenografts (orthotopic ARCaPM (ARCaP) tumors in mice) is “strong uptake; also recorded: active uptake; also recorded: dye uptake and retention seen in an ARCaPM orthotopic tumor”. Further, the “tumor signal in whole-body NIR imaging” value in the data set on human tumor xenografts (subcutaneous renal tumors (ACHN), Kodak System) is listed as “signals could be clearly visualized in the tumors”. For the same compound, in the data set on human tumor xenografts, the “dye uptake and signal in human xenograft implants at various sites” value is reported as “found in a broad spectrum of human xenograft implants; also recorded: intense signals were clearly associated with the tumors; also recorded: both tumors were detected”; the “duration of dye uptake and retention in tumors after dye administration” value was “up to 15 days”. Moreover, the “signal at anatomical sites of implanted tumors” value in the data set on human tumor xenografts (subrenal capsule (Caki-1) and intraosseous (SN12C) renal tumor xenografts) was “strong signals”. Moreover, in the data set with human tumor xenografts (tumors in mice), the “size of tumors that can be imaged” value is “approximately 1 mm^3” and the “tumor weight that can be imaged” value is recorded as “approximately 1 mg”. Besides, in data set [1] (6 hrs after i.v. 10 nmol/20 g, normal mice), the organs accumulating dye entry is “accumulate in mouse liver, kidney, lung and heart”. The “dye in vital organs at 80 hrs” value in data set [1] (80 hrs after i.v. 10 nmol/20 g, normal mice) is given as “completely cleared”. For the same compound, the “time by which dye was cleared from all mouse vital organs” value in data set [1] (i.v. 10 nmol/20 g, normal mice) was not above 80 h. Moreover, the “time period within which dye was cleared from normal organs” value in data set [1] (liver, kidney, testis and seminal vesicles, live animals) was not above 96 h.
As for `CCCN1C(=CC=C2CCCC(C=CC3=[N+](CCC)c4ccccc4C3(C)C)=C2Cl)C(C)(C)c2ccccc21.[I-]` [IR-780, 2-[2-[2-Chloro-3-[(1,3-dihydro-3,3-dimethyl-1-propyl-2H-indol-2-ylidene)ethylidene]-1-cyclohexen-1-yl]ethenyl]-3,3-dimethyl-1-propylindolium iodide], in the data set with normal human cells, the “uptake of dye by normal human cells in culture” value is recorded as “unable to be taken up by normal cells; also recorded: very low uptake”. In the data set on human tumor xenografts (5 nmol dye through tail vein), the “tumor imaging of intratibial ARCaPM tumors” value is “clear tumor images can be detected” and the “tumor imaging of subcutaneous xenografts” value is listed as “clear tumor images can be detected in all subcutaneous tumors”. Besides, in the data set on human tumor xenografts, the “dye uptake and signal in human xenograft implants at various sites” value is reported as “found in a broad spectrum of human xenograft implants”; the “duration of dye uptake and retention in tumors after dye administration” value is listed as not above 15 days. Besides, the “dye uptake in normal mouse tissues” value in data set [1] (96 hrs after injection through tail vein, frozen slides, confocal) was “all mouse tissues failed to uptake this organic dye”.
